Measurements as given in patent US9580437B2, “Triazolopyrimidine compounds and uses thereof” (Novartis AG, priority 2014, dated 2017).
pIC50: −log10 of the molar value.

How the values were obtained:
EED (1-441)-His protein = EED (1-441)-His protein (Homo sapiens (Human), UniProt O75530); assay: EED-H3K27Me3 peptide competition binding assay by AlphaScreen; conditions: read-out: (a) IC50 EED Alphascreen binding Qualified
Description: EED-H3K27Me3 peptide competition binding assay by AlphaScreen (α-screen)

[1] = target: wild type PRC2 (wtPRC2) complex (Homo sapiens (Human), UniProt O75530); assay: EED LC-MS assay; type: biochemical; conditions: read-out: (b) IC50 EED LC-MS Qualified
wild type PRC2 (wtPRC2) complex, sequence (O75530 whole entry): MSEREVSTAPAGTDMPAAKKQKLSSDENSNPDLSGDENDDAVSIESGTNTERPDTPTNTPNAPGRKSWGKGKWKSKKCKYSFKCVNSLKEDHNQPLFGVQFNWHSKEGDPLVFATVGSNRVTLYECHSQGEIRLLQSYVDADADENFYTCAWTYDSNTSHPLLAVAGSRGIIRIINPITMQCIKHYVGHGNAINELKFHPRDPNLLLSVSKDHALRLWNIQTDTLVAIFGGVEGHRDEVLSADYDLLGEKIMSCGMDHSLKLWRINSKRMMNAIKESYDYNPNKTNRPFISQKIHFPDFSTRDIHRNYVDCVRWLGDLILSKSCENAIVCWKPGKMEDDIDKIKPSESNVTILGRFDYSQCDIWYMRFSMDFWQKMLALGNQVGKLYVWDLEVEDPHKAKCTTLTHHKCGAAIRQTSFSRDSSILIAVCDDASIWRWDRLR
wild type PRC2 (wtPRC2) complex, sequence (Q15910 whole entry partner): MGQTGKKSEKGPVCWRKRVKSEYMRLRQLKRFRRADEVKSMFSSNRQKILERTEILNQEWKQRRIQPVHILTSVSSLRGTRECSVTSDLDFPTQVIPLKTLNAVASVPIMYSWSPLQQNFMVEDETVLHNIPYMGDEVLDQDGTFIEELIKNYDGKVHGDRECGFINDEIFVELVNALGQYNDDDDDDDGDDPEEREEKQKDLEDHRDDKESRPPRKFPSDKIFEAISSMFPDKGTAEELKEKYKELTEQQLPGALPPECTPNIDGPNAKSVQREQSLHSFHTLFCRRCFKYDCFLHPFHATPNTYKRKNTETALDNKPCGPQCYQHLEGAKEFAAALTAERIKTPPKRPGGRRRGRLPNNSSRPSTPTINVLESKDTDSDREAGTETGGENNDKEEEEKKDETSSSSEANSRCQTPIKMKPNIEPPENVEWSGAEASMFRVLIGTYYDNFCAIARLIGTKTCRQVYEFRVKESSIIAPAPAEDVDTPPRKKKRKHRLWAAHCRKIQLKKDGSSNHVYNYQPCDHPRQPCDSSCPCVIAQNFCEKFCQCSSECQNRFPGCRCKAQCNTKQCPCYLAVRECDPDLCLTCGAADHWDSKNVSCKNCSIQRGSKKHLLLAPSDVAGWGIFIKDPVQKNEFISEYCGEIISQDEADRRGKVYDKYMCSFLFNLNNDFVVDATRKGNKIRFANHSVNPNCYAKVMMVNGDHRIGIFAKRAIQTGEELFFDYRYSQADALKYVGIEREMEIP
wild type PRC2 (wtPRC2) complex, sequence (Q15022 whole entry partner): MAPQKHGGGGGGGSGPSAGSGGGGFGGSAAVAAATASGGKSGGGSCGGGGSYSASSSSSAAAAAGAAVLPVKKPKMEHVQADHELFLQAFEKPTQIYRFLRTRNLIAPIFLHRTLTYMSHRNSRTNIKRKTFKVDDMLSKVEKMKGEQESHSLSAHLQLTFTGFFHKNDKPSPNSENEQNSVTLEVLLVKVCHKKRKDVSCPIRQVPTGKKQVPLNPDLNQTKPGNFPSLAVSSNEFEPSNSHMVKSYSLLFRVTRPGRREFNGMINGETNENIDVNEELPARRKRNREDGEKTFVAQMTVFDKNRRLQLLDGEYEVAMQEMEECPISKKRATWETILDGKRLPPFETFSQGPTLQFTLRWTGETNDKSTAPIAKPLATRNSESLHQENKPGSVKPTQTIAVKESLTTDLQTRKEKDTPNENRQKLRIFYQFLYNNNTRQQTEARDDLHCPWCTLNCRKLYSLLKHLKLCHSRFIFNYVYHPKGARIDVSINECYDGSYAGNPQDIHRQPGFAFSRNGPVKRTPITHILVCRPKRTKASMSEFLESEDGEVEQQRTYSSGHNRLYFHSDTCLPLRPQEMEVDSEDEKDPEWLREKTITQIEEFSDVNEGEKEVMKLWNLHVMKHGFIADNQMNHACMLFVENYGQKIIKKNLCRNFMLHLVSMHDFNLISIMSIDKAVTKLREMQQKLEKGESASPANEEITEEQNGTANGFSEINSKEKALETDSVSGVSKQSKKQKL
Method: A 6 μL solution of 3 μM of the peptide substrate H3K27Me0 (histone H3[21-44]-biotin) in reaction buffer was added to initiate each reaction. […] ELISA (H3K27 Methylation) Assay

EED (1-441)-His protein, sequence (O75530 whole entry): as the sequence (O75530 whole entry) above

Row | Structure (SMILES) | pIC50 (EED (1-441)-His protein) | pIC50 [1]
1 | Cc1nc(C(=O)N(C)C)ccc1-c1cnc(NCc2c(F)ccc3c2CCO3)n2cnnc12 [Example 199, 5-(5-(((5-fluoro-2,3-dihydrobenzofuran-4-yl)methyl)amino)-[1,2,4]triazolo[4,3-c]pyrimidin-8-yl)-N,N,6-trimethylpicolinamide] | 8.38 | 8.14
2 | Fc1ccc2c(c1CNc1ncc(-n3cncn3)c3nncn13)CCO2 [Example 241, N-((5-fluoro-2,3-dihydrobenzofuran-4-yl)methyl)-8-(1H-1,2,4-triazol-1-yl)-[1,2,4]triazolo[4,3-c]pyrimidin-5-amine] | 7.95 | 7.52
3 | CC1(C)COC(c2cncc(-c3cnc(NCc4cccc5c4CCO5)n4cnnc34)c2)=N1 [Example 90, N-((2,3-dihydrobenzofuran-4-yl)methyl)-8-(5-(4,4-dimethyl-4,5-dihydrooxazol-2-yl)pyridin-3-yl)-[1,2,4]triazolo[4,3-c]pyrimidin-5-amine] | 7.88 | 7.52
4 | [O-][n+]1cccc(-c2cnc(NCc3c(F)ccc4c3CCO4)n3cnnc23)c1 [Example 10, 3-(5-(((5-fluoro-2,3-dihydrobenzofuran-4-yl)methyl)amino)-[1,2,4]triazolo[4,3-c]pyrimidin-8-yl)pyridine 1-oxide] | 8.14 | 7.86
5 | CN1CCN(c2cc(-c3cnc(NCc4cccc5occc45)n4cnnc34)ccn2)CC1 [Example 212, N-(benzofuran-4-ylmethyl)-8-(2-(4-methylpiperazin-1-yl)pyridin-4-yl)-[1,2,4]triazolo[4,3-c]pyrimidin-5-amine] | 7.51 | 7.47
6 | c1cc(CNc2ncc(-c3ccc(N4CCOCC4)nc3)c3nncn23)c2c(c1)OCC2 [Example 69, N-((2,3-dihydrobenzofuran-4-yl)methyl)-8-(6-morpholinopyridin-3-yl)-[1,2,4]triazolo[4,3-c]pyrimidin-5-amine] | 6.74 | 6.42
7 | Cc1c(-c2cnc(NCc3c(F)ccc4c3CCO4)n3cnnc23)cnn1CCO [Example 189, 2-(4-(5-(((5-fluoro-2,3-dihydrobenzofuran-4-yl)methyl)amino)-[1,2,4]triazolo[4,3-c]pyrimidin-8-yl)-5-methyl-1H-pyrazol-1-yl)ethanol] | 8.38 | 8.06
8 | Clc1ccncc1-c1cnc(NCc2cccc3c2CCO3)n2cnnc12 [Example 50, 8-(4-chloropyridin-3-yl)-N-((2,3-dihydrobenzofuran-4-yl)methyl)-[1,2,4]triazolo[4,3-c]pyrimidin-5-amine] | 7.72 | 7.39
9 | CN(C)CCc1ccc(-c2cnc(NCc3cccc4c3CCO4)n3cnnc23)cc1 [Example 35, N-((2,3-dihydrobenzofuran-4-yl)methyl)-8-(4-(2-(dimethylamino)ethyl)phenyl)-[1,2,4]triazolo[4,3-c]pyrimidin-5-amine] | 8.08 | 7.82
10 | CS(=O)(=O)CCCOc1cncc(-c2cnc(NCc3cccc4c3CCO4)n3cnnc23)c1 [Example 98, N-((2,3-dihydrobenzofuran-4-yl)methyl)-8-(5-(3-(methylsulfonyl)propoxy)pyridin-3-yl)-[1,2,4]triazolo[4,3-c]pyrimidin-5-amine] | 7.66 | 7.45
11 | COCc1ncc(-c2cnc(NCc3cccc4c3CCO4)n3cnnc23)cc1C [Example 83, N-((2,3-dihydrobenzofuran-4-yl)methyl)-8-(6-(methoxymethyl)-5-methylpyridin-3-yl)-[1,2,4]triazolo[4,3-c]pyrimidin-5-amine] | 7.98 | 7.64
12 | O=C1CN(CCc2ccc(-c3cnc(NCc4cccc5c4CCO5)n4cnnc34)cn2)CCN1 [Example 109, 4-(2-(5-(5-(((2,3-dihydrobenzofuran-4-yl)methyl)amino)-[1,2,4]triazolo[4,3-c]pyrimidin-8-yl)pyridin-2-yl)ethyl)piperazin-2-one] | 8.06 | 7.86
13 | COCCn1nc(C)c(-c2cnc(NCc3c(F)ccc4c3CCO4)n3cnnc23)c1C [Example 159, N-((5-fluoro-2,3-dihydrobenzofuran-4-yl)methyl)-8-(1-(2-methoxyethyl)-3,5-dimethyl-1H-pyrazol-4-yl)-[1,2,4]triazolo[4,3-c]pyrimidin-5-amine] | 8.30 | 7.99
14 | Fc1ccc2c(c1CNc1ncc(-c3ccnc(C(F)(F)F)c3)c3nncn13)CCO2 [Example 185, N-((5-fluoro-2,3-dihydrobenzofuran-4-yl)methyl)-8-(2-(trifluoromethyl)pyridin-4-yl)-[1,2,4]triazolo[4,3-c]pyrimidin-5-amine] | 8.36 | 8.17
15 | O=C(c1ccc(-c2cnc(NCc3cccc4c3CCO4)n3cnnc23)cn1)N1CCCC1 [Example 80, (5-(5-(((2,3-dihydrobenzofuran-4-yl)methyl)amino)-[1,2,4]triazolo[4,3-c]pyrimidin-8-yl)pyridin-2-yl)(pyrrolidin-1-yl)methanone] | 8.43 | 8.06
16 | Cc1cnc(C(F)F)cc1-c1cnc(NCc2c(F)ccc3c2CCO3)n2cnnc12 [Example 198, 8-(2-(difluoromethyl)-5-methylpyridin-4-yl)-N-((5-fluoro-2,3-dihydrobenzofuran-4-yl)methyl)-[1,2,4]triazolo[4,3-c]pyrimidin-5-amine] | 8.36 | 7.76
17 | Cc1nc(C2CC2)ccc1-c1cnc(NCc2c(F)ccc3c2CCO3)n2cnnc12 [Example 6, 8-(6-Cyclopropyl-2-methylpyridin-3-yl)-N-((5-fluoro-2,3-dihydrobenzofuran-4-yl)methyl)-[1,2,4]triazolo[4,3-c]pyrimidin-5-amine] | 8.28 | 8.11
18 | Cc1c(-c2cnc(NCc3c(F)ccc4c3C(O)CO4)n3cnnc23)ccc[n+]1[O-] (stereo not drawn) [Example 244, 3-(5-(((5-fluoro-3-hydroxy-2,3-dihydrobenzofuran-4-yl)methyl)amino)-[1,2,4]triazolo[4,3-c]pyrimidin-8-yl)-2-methylpyridine 1-oxide] | 7.93 | 7.41
19 | CS(=O)(=O)c1ccc(-c2cnc(NCc3cccc4c3CCO4)n3cnnc23)c(F)c1 [Example 26, N-((2,3-dihydrobenzofuran-4-yl)methyl)-8-(2-fluoro-4-(methylsulfonyl)phenyl)-[1,2,4]triazolo[4,3-c]pyrimidin-5-amine] | 8.00 | 7.77
20 | CN(C)C(=O)c1ccc(-c2cnc(NCc3c(F)ccc4c3CCO4)n3cnnc23)cc1 [Example 55, 4-(5-(((5-fluoro-2,3-dihydrobenzofuran-4-yl)methyl)amino)-[1,2,4]triazolo[4,3-c]pyrimidin-8-yl)-N,N-dimethylbenzamide] | 7.68 | 7.50

More lines, now with the values ahead:

Row | pIC50 (EED (1-441)-His protein) | pIC50 [1] | Structure (SMILES)
21 | 8.48 | 8.28 | Cc1ccc(-c2cnc(NCc3c(F)ccc4c3CCO4)n3cnnc23)c(C)n1 [Example 167, 8-(2,6-dimethylpyridin-3-yl)-N-((5-fluoro-2,3-dihydrobenzofuran-4-yl)methyl)-[1,2,4]triazolo[4,3-c]pyrimidin-5-amine]
22 | 7.70 | 7.48 | Fc1ccc2c(c1CNc1ncc(-c3ccncc3)c3nncn13)CCO2 [Example 45, N-((5-fluoro-2,3-dihydrobenzofuran-4-yl)methyl)-8-(pyridin-4-yl)-[1,2,4]triazolo[4,3-c]pyrimidin-5-amine]
23 | 7.97 | 7.71 | Cc1c(-c2cnc(NCc3c(F)ccc4c3CCO4)n3cnnc23)ccc[n+]1[O-] [Example 204, 3-(5-(((5-fluoro-2,3-dihydrobenzofuran-4-yl)methyl)amino)-[1,2,4]triazolo[4,3-c]pyrimidin-8-yl)-2-methylpyridine 1-oxide]
24 | 8.21 | 8.22 | Fc1ccc2c(c1CNc1ncc(-c3ccccn3)c3nncn13)CCO2 [Example 231, N-((5-fluoro-2,3-dihydrobenzofuran-4-yl)methyl)-8-(pyridin-2-yl)-[1,2,4]triazolo[4,3-c]pyrimidin-5-amine]
25 | 8.33 | 8.16 | Fc1ccc2c(c1CNc1ncc(-c3cccnc3F)c3nncn13)CCO2 [Example 115, N-((5-fluoro-2,3-dihydrobenzofuran-4-yl)methyl)-8-(2-fluoropyridin-3-yl)-[1,2,4]triazolo[4,3-c]pyrimidin-5-amine]
26 | 8.00 | 7.74 | Cc1ccncc1-c1cnc(NCc2c(F)ccc3c2CCO3)n2cnnc12 [Example 118, N-((5-fluoro-2,3-dihydrobenzofuran-4-yl)methyl)-8-(4-methylpyridin-3-yl)-[1,2,4]triazolo[4,3-c]pyrimidin-5-amine]
27 | 8.35 | 8.13 | Cc1cc(F)ccc1-c1cnc(NCc2c(F)ccc3c2CCO3)n2cnnc12 [Example 165, N-((5-fluoro-2,3-dihydrobenzofuran-4-yl)methyl)-8-(4-fluoro-2-methylphenyl)-[1,2,4]triazolo[4,3-c]pyrimidin-5-amine]
28 | 7.89 | 7.72 | Fc1ccc2c(c1CNc1ncc(-c3cccnc3)c3nncn13)CCO2 [Example 44, N-((5-fluoro-2,3-dihydrobenzofuran-4-yl)methyl)-8-(pyridin-3-yl)-[1,2,4]triazolo[4,3-c]pyrimidin-5-amine]
29 | 7.91 | 7.63 | Cc1ncccc1-c1cnc(NCc2cccc3c2CCO3)n2cnnc12 [Example 123, N-((2,3-dihydrobenzofuran-4-yl)methyl)-8-(2-methylpyridin-3-yl)-[1,2,4]triazolo[4,3-c]pyrimidin-5-amine]
30 | 7.77 | 7.38 | COc1ncccc1-c1cnc(NCc2c(F)ccc3c2CCO3)n2cnnc12 [Example 141, N-((5-fluoro-2,3-dihydrobenzofuran-4-yl)methyl)-8-(2-methoxypyridin-3-yl)-[1,2,4]triazolo[4,3-c]pyrimidin-5-amine]
